Literature values, collected in US20210347751A1, “METHOD FOR EFFICIENT EXTRACTION OF PLANT ANTHOCYANIDIN” (priority 2018, published 2021).
Where two headings read alike, the source gives them in different places.

Legend:
[1] = in vivo

bioavailability in the human body [1] | Molecule | Water solubility (10° C.) | Water solubility (20° C.) | Water solubility (30° C.) | Water solubility (40° C.) | Water solubility (60° C.) | Water solubility (70° C.) | Water solubility (80° C.) | Water solubility (90° C.) | Water solubility (100° C.)
– | [Cl-].[K+] [potassium chloride] | 31.2 gram/100 g of water | 34.2 gram/100 g of water | 37.2 gram/100 g of water | 40.1 gram/100 g of water | 45.8 gram/100 g of water | 48.8 gram/100 g of water | 51.3 gram/100 g of water | 53.9 gram/100 g of water | 56.3 gram/100 g of water
almost zero | Anthocyanins | – | – | – | – | – | – | – | – | –
